From patent US20250179061A1 (SIRONAX LTD., priority 2022, published 2025)
Read-outs that look alike come from different tables or passages of the source.

Tested on: HT-29 cells
Assay: HT-29 necroptosis cell viability assay (TNF-α/SMAC mimetic/zVAD-FMK, CellTiter-Glo)
Type: cell-based
Conditions: Homo sapiens, read-out: Activity
Summary of the method: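 Necroptosis was triggered by TNF-α (10 ng/ml), SMAC mimetic (6 μM) and zVAD-FMK (10 μM) in serum-free medium during 20 h compound exposure (10 concentrations, threefold steps) of HT-29 cells. IC50 from duplicate dose-responses uses CellTiter-Glo ATP luminescence as viability read-out.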

[1] = HT-29, HT-29 necroptosis cell viability, IC50 class symbols
[2] = HT-29 cells stimulated with TNF-α (10 ng/ml), SMAC mimetic (6 μM) and zVAD-FMK (10 μM), 20 hours, CellTiter-Glo ATP luminescence, geometric mean IC50 from 10 points
[3] = HT-29, HT-29 necroptosis cell viability assay, class symbols for IC50

Structure (SMILES)	IC50 [1]	IC50 [3]	other results
O=c1n(Cc2c(F)cccc2F)cnn1-c1ccc(Oc2ccnc(NC3CCC3)c2)cc1 [Example 344, 2-(4-((2-(cyclobutylamino)pyridin-4-yl)oxy)phenyl)-4-(2,6-difluorobenzyl)-2,4-dihydro-3H-1,2,4-triazol-3-one]	0.1 to 1 µM	–	–
COC1(C#N)CN(c2cc(Oc3ccc(-n4ncn(Cc5c(F)cccc5F)c4=O)cc3F)c(F)cn2)C1 [Example 230, 1-(4-(4-(4-(2,6-difluorobenzyl)-5-oxo-4,5-dihydro-1H-1,2,4-triazol-1-yl)-2-fluorophenoxy)-5-fluoropyridin-2-yl)-3-methoxyazetidine-3-carbonitrile]	< 0.1 µM	–	–
Cc1c(Oc2ccc(-n3nc4n(c3=O)[C@H](c3ccccc3)CC4)cc2F)noc1C(N)=O (single isomer, unassigned) [Example 690]	–	–	IC50 [2]: < 0.1 µM
Cc1cc(C#N)c(C)n1Cc1ccc(-n2ncn(Cc3c(F)cccc3F)c2=O)cc1F [Example 124, 1-(4-(4-(2,6-difluorobenzyl)-5-oxo-4,5-dihydro-1H-1,2,4-triazol-1-yl)-2-fluorobenzyl)-2,5-dimethyl-1H-pyrrole-3-carbonitrile]	–	< 0.1 µM	–
Cc1cnc(NC23CC(C#N)(C2)C3)cc1Oc1ccc(-n2ncn(Cc3c(F)cccc3F)c2=O)cc1Cl [Example 267, 3-((4-(2-chloro-4-(4-(2,6-difluorobenzyl)-5-oxo-4,5-dihydro-1H-1,2,4-triazol-1-yl)phenoxy)-5-methylpyridin-2-yl)amino)bicyclo[1.1.1]pentane-1-carbonitrile]	< 0.1 µM	–	–
COC1(C)CN(c2cc(Oc3ccc(-n4ncn(Cc5c(F)cccc5F)c4=O)cc3Cl)c(F)cn2)C1 [Example 496, 2-(3-chloro-4-((5-fluoro-2-(3-methoxy-3-methylazetidin-1-yl)pyridin-4-yl)oxy)phenyl)-4-(2,6-difluorobenzyl)-2,4-dihydro-3H-1,2,4-triazol-3-one]	–	< 0.1 µM	–
Cc1nc(N2CC(N)(CF)C2)sc1Cc1ccc(-n2ncn(Cc3c(F)cccc3F)c2=O)cc1F [Example 453, 2-(4-((2-(3-amino-3-(fluoromethyl)azetidin-1-yl)-4-methylthiazol-5-yl)methyl)-3-fluorophenyl)-4-(2,6-difluorobenzyl)-2,4-dihydro-3H-1,2,4-triazol-3-one]	< 0.1 µM	–	–
CC1(CN)CN(c2cc(Oc3ccc(-n4ncn(Cc5c(F)cccc5F)c4=O)cc3F)c(F)cn2)C1 [Example 555, 2-(4-((2-(3-(aminomethyl)-3-methylazetidin-1-yl)-5-fluoropyridin-4-yl)oxy)-3-fluorophenyl)-4-(2,6-difluorobenzyl)-2,4-dihydro-3H-1,2,4-triazol-3-one]	–	< 0.1 µM	–
O=c1n(Cc2c(F)cccc2F)cnn1-c1ccc(Oc2cc(C3CCOCC3)ncc2F)c(F)c1 [Example 553, 4-(2,6-difluorobenzyl)-2-(3-fluoro-4-((5-fluoro-2-(tetrahydro-2H-pyran-4-yl)pyridin-4-yl)oxy)phenyl)-2,4-dihydro-3H-1,2,4-triazol-3-one]	–	0.1 to 1 µM	–
CC1(C#N)CN(c2cccnc2OCc2ccc(-n3ncn(Cc4c(F)cccc4F)c3=O)cc2)C1 [Example 286, 1-(2-((4-(4-(2,6-difluorobenzyl)-5-oxo-4,5-dihydro-1H-1,2,4-triazol-1-yl)benzyl)oxy)pyridin-3-yl)-3-methylazetidine-3-carbonitrile]	0.1 to 1 µM	–	–
O=c1n(-c2ccc(Oc3cc(Cl)ncc3F)c(F)c2)nc2n1C(c1ccccc1)CC2 (centres unmarked) [Example 12, 2-(4-((2-chloro-5-fluoropyridin-4-yl)oxy)-3-fluorophenyl)-5-phenyl-2,5,6,7-tetrahydro-3H-pyrrolo[2,1-c][1,2,4]triazol-3-one]	–	–	IC50 [2]: < 0.1 µM
Cc1nc(C(C)(C)O)sc1Oc1ccc(-n2ncn(Cc3ncccc3C#N)c2=O)cc1F [Example 129, 2-((1-(3-fluoro-4-((2-(2-hydroxypropan-2-yl)-4-methylthiazol-5-yl)oxy)phenyl)-5-oxo-1,5-dihydro-4H-1,2,4-triazol-4-yl)methyl)nicotinonitrile]	–	0.1 to 1 µM	–
CNC1(C)CN(c2cc(Oc3ccc(-n4ncn(Cc5c(F)cccc5F)c4=O)cc3F)c(Cl)cn2)C1 [Example 414, 2-(4-((5-chloro-2-(3-methyl-3-(methylamino)azetidin-1-yl)pyridin-4-yl)oxy)-3-fluorophenyl)-4-(2,6-difluorobenzyl)-2,4-dihydro-3H-1,2,4-triazol-3-one]	> 10 µM	–	–
C[C@H]1[C@H](C#N)CN1c1cc(Oc2ccc(-n3ncn(Cc4c(F)cccc4F)c3=O)cc2F)c(Cl)cn1 [Example 233, (2S,3R)-1-(5-chloro-4-(4-(4-(2,6-difluorobenzyl)-5-oxo-4,5-dihydro-1H-1,2,4-triazol-1-yl)-2-fluorophenoxy)pyridin-2-yl)-2-methylazetidine-3-carbonitrile]	< 0.1 µM	–	–
Cn1nc(CC#N)cc1Oc1ccc(-n2ncn(Cc3c(F)cccc3F)c2=O)cc1F [Example 140, 2-(5-(4-(4-(2,6-difluorobenzyl)-5-oxo-4,5-dihydro-1H-1,2,4-triazol-1-yl)-2-fluorophenoxy)-1-methyl-1H-pyrazol-3-yl)acetonitrile]	–	< 0.1 µM	–
Cc1c(C#N)noc1Oc1ccc(-n2ncn(Cc3c(F)cccc3F)c2=O)cc1F [Example 475, 5-(4-(4-(2,6-difluorobenzyl)-5-oxo-4,5-dihydro-1H-1,2,4-triazol-1-yl)-2-fluorophenoxy)-4-methylisoxazole-3-carbonitrile]	< 0.1 µM	–	–
N#CC1(CNc2cc(Oc3ccc(-n4ncn(Cc5c(F)cccc5F)c4=O)cc3)ccn2)CC1 [Example 381, 1-(((4-(4-(4-(2,6-difluorobenzyl)-5-oxo-4,5-dihydro-1H-1,2,4-triazol-1-yl)phenoxy)pyridin-2-yl)amino)methyl)cyclopropane-1-carbonitrile]	< 0.1 µM	–	–
CCOC1CN(c2nccc(Oc3ccc(-n4nc(C)n(Cc5ccccc5)c4=O)cc3)c2F)C1 [Example 304, 4-benzyl-2-[4-[[2-(3-ethoxyazetidin-1-yl)-3-fluoro-4-pyridyl]oxy]phenyl]-5-methyl-1,2,4-triazol-3-one]	0.1 to 1 µM	–	–
CC1(N)CN(c2cc(Oc3ccc(-n4ncn(Cc5c(F)cccc5F)c4=O)cc3F)c(F)cn2)C1 [Example 424, 2-(4-((2-(3-amino-3-methylazetidin-1-yl)-5-fluoropyridin-4-yl)oxy)-3-fluorophenyl)-4-(2,6-difluorobenzyl)-2,4-dihydro-3H-1,2,4-triazol-3-one]	0.1 to 1 µM	–	–
Cc1nc(C(=O)N2CC(O)C2)sc1Oc1ccc(-n2ncn(Cc3ccccc3F)c2=O)cc1F [Example 593, 2-(3-fluoro-4-((2-(3-hydroxyazetidine-1-carbonyl)-4-methylthiazol-5-yl)oxy)phenyl)-4-(2-fluorobenzyl)-2,4-dihydro-3H-1,2,4-triazol-3-one]	–	< 0.1 µM	–
CC1(CN)CN(c2cc(Oc3ccc(-n4ncn(Cc5c(F)cccc5F)c4=O)cc3F)c(F)cn2)C1 [Example 399, 2-(4-((2-(3-(aminomethyl)-3-methylazetidin-1-yl)-5-fluoropyridin-4-yl)oxy)-3-fluorophenyl)-4-(2,6-difluorobenzyl)-2,4-dihydro-3H-1,2,4-triazol-3-one]	0.1 to 1 µM	–	–
Cc1c(CO)nn(C)c1Oc1ccc(-n2nc3n(c2=O)C(c2ccccc2)CC3)cc1F (centres unmarked) [Example 158, 2-(3-fluoro-4-((3-(hydroxymethyl)-1,4-dimethyl-1H-pyrazol-5-yl)oxy)phenyl)-5-phenyl-2,5,6,7-tetrahydro-3H-pyrrolo[2,1-c][1,2,4]triazol-3-one]	–	< 0.1 µM	–
CCOC1CN(c2nccc(Oc3ccc(-n4ncn(Cc5c(F)cccc5F)c4=O)cc3)c2Cl)C1 [Example 261, 2-(4-((3-chloro-2-(3-ethoxyazetidin-1-yl)pyridin-4-yl)oxy)phenyl)-4-(2,6-difluorobenzyl)-2,4-dihydro-3H-1,2,4-triazol-3-one]	0.1 to 1 µM	–	–
Cc1nc(C2(F)CC(N)C2)sc1Oc1ccc(-n2ncn(Cc3c(F)cccc3F)c2=O)cc1F (centres unmarked) [Example 109, 2-(4-((2-(3-amino-1-fluorocyclobutyl)-4-methylthiazol-5-yl)oxy)-3-fluorophenyl)-4-(2,6-difluorobenzyl)-2,4-dihydro-3H-1,2,4-triazol-3-one]	–	–	IC50 [2]: < 0.1 µM
CCOC1CN(c2cc(Oc3ccc(-n4ncn(Cc5c(F)cccc5F)c4=O)cc3Cl)c(Cl)cn2)C1 [Example 260, 2-(3-chloro-4-((5-chloro-2-(3-ethoxyazetidin-1-yl)pyridin-4-yl)oxy)phenyl)-4-(2,6-difluorobenzyl)-2,4-dihydro-3H-1,2,4-triazol-3-one]	< 0.1 µM	–	–
O=c1n(Cc2c(F)cccc2F)cnn1-c1ccc(Oc2ccnc(NC3(C(F)(F)F)CC3)c2F)cc1 [Example 362, 4-(2,6-difluorobenzyl)-2-(4-((3-fluoro-2-((1-(trifluoromethyl)cyclopropyl)amino)pyridin-4-yl)oxy)phenyl)-2,4-dihydro-3H-1,2,4-triazol-3-one]	1 to 10 µM	–	–
CC1(O)CN(c2cc(Oc3ccc(-n4ncn(Cc5c(F)cccc5F)c4=O)cc3)ccn2)C1 [Example 329, 4-(2,6-difluorobenzyl)-2-(4-((2-(3-hydroxy-3-methylazetidin-1-yl)pyridin-4-yl)oxy)phenyl)-2,4-dihydro-3H-1,2,4-triazol-3-one]	< 0.1 µM	–	–
CN(CC1CCCO1)c1nccc(Oc2ccc(-n3ncn(Cc4c(F)cccc4F)c3=O)cc2)c1F (centres unmarked) [Example 487, 4-(2,6-difluorobenzyl)-2-(4-((3-fluoro-2-(methyl((tetrahydrofuran-2-yl)methyl)amino)pyridin-4-yl)oxy)phenyl)-2,4-dihydro-3H-1,2,4-triazol-3-one]	–	0.1 to 1 µM	–
Cc1ncsc1Cc1ccc(-n2ncn(Cc3c(F)cccc3F)c2=O)cc1F [Example 59, 4-(2,6-difluorobenzyl)-2-(3-fluoro-4-((4-methylthiazol-5-yl)methyl)phenyl)-2,4-dihydro-3H-1,2,4-triazol-3-one]	–	–	IC50 [2]: < 0.1 µM
